Experimental data published in US9346794B1, “Substituted 4-pyridones and their use as inhibitors of neutrophil elastase activity” (Boehringer Ingelheim International GmbH, priority 2012, dated 2016).

Each compound was assayed against Human neutrophil elastase (Homo sapiens (Human), UniProt P08246) (assay: Human Neutrophil Elastase Assay). Details: substrate MeOSuc-Ala-Ala-Pro-Val-AMC 250 μM, fluorescence, pH 7.5.
Type: biochemical
Procedure: Human Neutrophil Elastase Assay
All other materials were of the highest grade commercially available.
The following buffers were used: Compound buffer: 100 mM Tris, 500 mM NaCl, adjusted to pH 7.5; Assay buffer: 100 mM Tris, 500 mM NaCl, adjusted to pH 7.5, containing 0.01% BSA.
Assay conditions: Test compounds were prediluted in DMSO and subsequently in compound buffer (5% DMSO final). […] After inactivation of the enzyme, fluorescence intensities were measured at 380 nm excitation and 460 nm emission wavelengths.
Each plate contains wells with a high value control (DMSO+enzyme+substrate) and wells with a low value control (DMSO+inactivated enzyme+substrate). IC50 values were estimated using a sigmoidal concentration response curve with variable slope. Means of low values were taken as 0%, means of high values as 100%. IC50 values of selected compound in the Neutrophil Elastase assay: […]

Chain of Human neutrophil elastase (P08246 30-247): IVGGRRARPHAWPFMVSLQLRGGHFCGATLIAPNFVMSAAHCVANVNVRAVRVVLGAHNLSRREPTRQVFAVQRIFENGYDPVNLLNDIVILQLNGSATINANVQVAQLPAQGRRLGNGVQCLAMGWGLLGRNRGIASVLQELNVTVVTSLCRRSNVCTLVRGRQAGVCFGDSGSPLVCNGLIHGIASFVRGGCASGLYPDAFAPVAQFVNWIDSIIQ

Point of comparison: `Cc1c(-c2ccnc(C(F)(F)F)c2)c(=O)c(C(=O)NCc2ccc(S(C)(=O)=NC#N)cc2)cn1C(C)C` (single isomer, unassigned) [Example 3B, 1-Isopropyl-2-methyl-4-oxo-2′-trifluoromethyl-1,4-dihydro-[3,4′]-bipyridinyl-5-carboxylic acid 4-(N-cyano-S-methylsulfonimidoyl)-benzylamide], IC50 5.1 nM. Against it:
- Cc1c(-c2cccc(C(F)(F)F)c2)c(=O)c(C(=O)NCc2ccc(S(C)(=O)=NC#N)cc2)cn1-c1ccccn1 (single isomer, unassigned) [Example 25] — within 1.5-fold, 4.3 nM
- Cc1c(-c2cccc(C(F)F)c2)c(=O)c(C(=O)NCc2ccc(S(C)(=O)=NC#N)cc2)cn1C1CCC1 (stereo not shown) [Example 6, 5-(3-Difluoromethyl-phenyl)-1-cyclobutyl-6-methyl-4-oxo-1,4-dihydro-pyridine-3-carboxylic acid 4-(N-cyano-S-methylsulfonimidoyl)-benzylamide] — 2.1-fold lower, 2.4 nM
- CCn1cc(C(=O)NCc2ccc(S(C)(=O)=NC#N)cc2)c(=O)c(-c2cccc(C(F)(F)F)c2)c1C (racemic) [Example 4, 1-Ethyl-6-methyl-4-oxo-5-(3-trifluoromethyl-phenyl)-1,4-dihydro-pyridine-3-carboxylic acid 4-(N-cyano-S-methylsulfonimidoyl)-benzylamide] — 1.7-fold lower, 3 nM
- Cc1c(-c2cccc(C(F)F)c2)c(=O)c(C(=O)NCc2ccc(S(C)(=O)=NC#N)cc2)cn1C(C)C (stereo not shown) [Example 1B, 5-(3-Difluoromethyl-phenyl)-1-isopropyl-6-methyl-4-oxo-1,4-dihydro-pyridine-3-carboxylic acid 4-(N-cyano-S-methylsulfonimidoyl)-benzylamide] — 3.9-fold lower, 1.3 nM
- CCn1cc(C(=O)NCc2ccc(S(=O)(CC)=NC#N)cc2)c(=O)c(-c2cccc(C(F)F)c2)c1C (single isomer, unassigned) [Example 29B] — lower, < 1 nM
- Cc1c(-c2cccc(C(F)(F)F)c2)c(=O)c(C(=O)NCc2ccc(S(C)(=O)=NC#N)cc2)cn1C1CCOCC1 (stereo not shown) [Example 53] — 2.2-fold lower, 2.3 nM
- Cc1c(-c2cccc(C(F)(F)F)c2)c(=O)c(C(=O)NCc2ccc(S(C)(=O)=NC#N)cc2)cn1C1CC1 (single isomer, unassigned) [Example 20] — within 1.5-fold, 5.6 nM
- Cc1c(-c2cccc(C(F)F)c2)c(=O)c(C(=O)NCc2ccc(S(C)(=O)=NC#N)cc2F)cn1C(C)C (stereo not shown) [Example 33] — 2-fold lower, 2.5 nM
- Cc1c(-c2cccc(C(F)(F)F)c2)c(=O)c(C(=O)NCc2ccc(S(C)(=O)=NC#N)cc2)cn1-c1cncnc1 (single isomer, unassigned) [Example 28] — 1.5-fold lower, 3.3 nM
- CN=S(C)(=O)c1ccc(CNC(=O)c2cn(C(C)C)c(C)c(-c3cccc(C(F)(F)F)c3)c2=O)cc1 (stereo not shown) [Example 67, 1-Isopropyl-6-methyl-4-oxo-5-(3-trifluoromethyl-phenyl)-1,4-dihydro-pyridine-3-carboxylic acid 4-(N,S-dimethylsulfonimidoyl)-benzylamide] — 9.7-fold higher, 49.3 nM
- Cc1c(-c2cccc(C(F)(F)F)c2)c(=O)c(C(=O)NCc2ccc(S(=O)(=NC#N)C(C)C)cc2)cn1C1CC1 (single isomer, unassigned) [Example 22A] — within 1.5-fold, 4.5 nM
- CCn1cc(C(=O)NCc2ccc(S(C)(=O)=NC#N)cc2)c(=O)c(-c2cccc(C(F)(F)F)c2)c1C (single isomer, unassigned) [Example 4B, 1-Ethyl-6-methyl-4-oxo-5-(3-trifluoromethyl-phenyl)-1,4-dihydro-pyridine-3-carboxylic acid 4-(N-cyano-S-methylsulfonimidoyl)-benzylamide] — 3.2-fold lower, 1.6 nM
- Cc1c(-c2cccc(C(F)F)c2)c(=O)c(C(=O)NCc2ccc(S(C)(=O)=NS(C)(=O)=O)cc2)cn1C(C)C (stereo not shown) [Example 35] — 1.6-fold higher, 8 nM
- Cc1c(-c2cccc(C(F)(F)F)c2)c(=O)c(C(=O)NCc2ccc(S(C)(=O)=NC#N)cc2)cn1C1CCOC1 (stereo not shown) [Example 54] — 2.2-fold lower, 2.3 nM
- CCS(=O)(=NC#N)c1ccc(CNC(=O)c2cn(C3CC3)c(C)c(-c3cccc(C(F)(F)F)c3)c2=O)cc1 (single isomer, unassigned) [Example 21B] — 2.4-fold lower, 2.1 nM
